Patent publication US9302999B2, “Substituted triazoles as herbicides” (E. I. DU PONT DE NEMOURS AND COMPANY, priority 2012, dated 2016)

Assays:
[1] = system: Barnyardgrass; experiment: Test C postemergence: barnyardgrass; format: in vivo, Echinochloa crus-galli; conditions: 125 g ai/ha, scale 0 to 100, 0 no effect, 100 complete control
[2] = system: Barnyardgrass; experiment: Test C postemergence: barnyardgrass; format: in vivo, Echinochloa crus-galli
Outline: (§1)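 Greenhouse pot test; foliar postemergence treatment at 1- to 4-leaf stage. Rated visually at 13 to 15 days on a 0–100 control scale relative to untreated plants.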

[3] = system: Oilseed Rape; experiment: Test C preemergence: oilseed rape; format: in vivo; conditions: 62 g ai/ha, scale of 0 to 100, 0 is no effect, 100 is complete control
[4] = system: Oilseed Rape; experiment: Test C postemergence: oilseed rape; format: in vivo, Brassica napus
[5] = system: barnyardgrass (Echinochloa crus-galli); experiment: Test C pre-/postemergence: barnyardgrass; format: in vivo; conditions: Preemergence, 250 g ai/ha; scale 0 to 100, 0 no effect, 100 complete control
[6] = system: Waterhemp; experiment: Test C pre-/postemergence: waterhemp; format: in vivo; conditions: Postemergence, 31 g ai/ha; scale 0 to 100 (0 no effect, 100 complete control)
[7] = system: Barnyardgrass; experiment: Test C preemergence: barnyardgrass; format: in vivo, Echinochloa crus-galli
[8] = system: Oilseed Rape; experiment: Test C postemergence: oilseed rape; format: in vivo; conditions: 62 g ai/ha, scale 0 to 100 (0 no effect, 100 complete control)
Outline: as §1

[9] = 31 g ai/ha, scale 0 to 100 (0 no effect, 100 complete control)
[10] = 62 g ai/ha, scale 0 to 100 (0 no effect, 100 complete control)
[11] = 125 g ai/ha, scale 0 to 100, 0 no effect, 100 complete control
[12] = 250 g ai/ha, scale 0 to 100 (0 no effect, 100 complete control)
[13] = 31 g ai/ha, scale 0 (no effect) to 100 (complete control)
[14] = 62 g ai/ha, scale of 0 to 100, 0 is no effect, 100 is complete control

CCCc1nn(-c2ccc(F)cc2F)nc1Oc1ccnc(C(F)(F)F)c1 [Compound 179]
Plant response rating, Barnyardgrass [1]: 65
Plant response rating, Barnyardgrass [2, 9]: 40
Plant response rating, Barnyardgrass [2, 10]: 45
Plant response rating, Barnyardgrass ([2]; 250 g ai/ha, scale 0 to 100): 75
Plant response rating, Oilseed Rape [3]: 98
Plant response rating, Oilseed Rape [4, 11]: 90
Plant response rating, Oilseed Rape [4, 12]: 90
Plant response rating, Barnyardgrass [5]: 100
Plant response rating, Waterhemp [6]: 80
Plant response rating, Barnyardgrass [7, 13]: 40
Plant response rating, Barnyardgrass [7, 14]: 100
Plant response rating, Barnyardgrass [7, 11]: 100
Plant response rating, Oilseed Rape [8]: 40

CCc1nn(-c2ccc(C(F)(F)F)c(F)c2)nc1Oc1ccnc(C(F)(F)F)c1 [Compound 183]
Plant response rating, Barnyardgrass [1]: 80
Plant response rating, Barnyardgrass [2, 9]: 15
Plant response rating, Barnyardgrass [2, 10]: 35
Plant response rating, Barnyardgrass ([2]; 250 g ai/ha, scale 0 to 100): 85
Plant response rating, Oilseed Rape [3]: 80
Plant response rating, Oilseed Rape [4, 11]: 25
Plant response rating, Oilseed Rape [4, 12]: 50
Plant response rating, Barnyardgrass [5]: 100
Plant response rating, Waterhemp [6]: 85
Plant response rating, Barnyardgrass [7, 13]: 40
Plant response rating, Barnyardgrass [7, 14]: 95
Plant response rating, Barnyardgrass [7, 11]: 100
Plant response rating, Oilseed Rape [8]: 25

CCOc1nn(-c2ccc(Cl)cc2)nc1Cc1ccnc(C(F)(F)F)c1 [Compound 188]
Plant response rating, Barnyardgrass [1]: 98
Plant response rating, Barnyardgrass [2, 9]: 75
Plant response rating, Barnyardgrass [2, 10]: 95
Plant response rating, Barnyardgrass ([2]; 250 g ai/ha, scale 0 to 100): 100
Plant response rating, Oilseed Rape [3]: 70
Plant response rating, Oilseed Rape [4, 11]: 90
Plant response rating, Oilseed Rape [4, 12]: 95
Plant response rating, Barnyardgrass [5]: 100
Plant response rating, Waterhemp [6]: 70
Plant response rating, Barnyardgrass [7, 13]: 80
Plant response rating, Barnyardgrass [7, 14]: 100
Plant response rating, Barnyardgrass [7, 11]: 100
Plant response rating, Oilseed Rape [8]: 90
